# Source: the supplement of paper PMC7017272
# ± gives the standard deviation of the averaged measurements.
# Assays:
# Details in all cases: treatment time: 3 days
# UT-SCC-24A [1] = assay: drug sensitivity score (DSS); higher = more sensitive
# Description: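 HNSCC cell lines (500 cells/well, 384-well) were cultured on plastic, on top of (2D) or embedded (3D) in Matrigel or human leiomyoma matrix Myogel (500 ug/mL; Myogel 3D mixed with rat collagen I). Cells were treated for 3 days with 5 ten-fold concentrations of each drug, and viability was read by CellTiter-Glo. Suffixes _1/_2/_3 on drug names are replicates.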
# UT-SCC-106A [2] = assay: maximal % inhibition of viability relative to DMSO; higher = stronger effect
# Summary of the method: (§1)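 Using 384-well plates, 500 cells/well of HPV-negative HNSCC cell lines were grown on plastic, on 500 µg/mL Matrigel or Myogel coatings, or embedded in Matrigel or Myogel with rat collagen I. They were treated with compounds at five 10-fold concentrations for 3 days, and luminescence from CellTiter-Glo 2.0 was normalised to vehicle (0.1% DMSO) and cell-killing control wells. IC50, maximal inhibition and drug sensitivity score were derived from percent-inhibition dose–response curves in the FIMM pipeline.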
# UT-SCC-14 [3] = assay: as above
# Summary of the method: as §1
# UT-SCC-28 [4] = assay: as above
# Summary of the method: as §1
# UT-SCC-24A [5] = assay: maximal % inhibition of viability relative to DMSO; higher = stronger effect
# Description: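 HNSCC cell lines (500 cells/well, 384-well) were cultured on plastic, on top of (2D) or embedded (3D) in Matrigel or human leiomyoma matrix Myogel (500 ug/mL; Myogel 3D mixed with rat collagen I). Cells were treated for 3 days with 5 ten-fold concentrations of each drug, and viability was read by CellTiter-Glo. Viability was normalised to DMSO (0% inhibition) and 100 uM benzethonium chloride (100% inhibition) controls and fitted with the FIMM DSRT pipeline to give IC50 (nM), maximal % inhibition and the drug sensitivity score (DSS). Suffixes _1/_2/_3 on drug names are replicates.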
# UT-SCC-106A [6] = assay: drug sensitivity score (DSS); higher = more sensitive; extreme values may be limits of the assay
# Summary of the method: as §1
# UT-SCC-14 [7] = assay: as above
# Summary of the method: as §1
# UT-SCC-24B = assay: as above
# Summary of the method: as §1
# UT-SCC-28 [8] = assay: as above
# Summary of the method: as §1
# UT-SCC-40 = assay: as above
# Summary of the method: as §1
# UT-SCC-42A = assay: as above
# Summary of the method: as §1
# UT-SCC-42B = assay: as above
# Summary of the method: as §1
# UT-SCC-44 = assay: as above
# Summary of the method: as §1
# UT-SCC-73 = assay: as above
# Summary of the method: as §1
# UT-SCC-81 = assay: as above
# Summary of the method: as §1
# UT-SCC-8 = assay: as above
# Summary of the method: as §1
# [9] = culture condition: embedded in Matrigel
# [10] = culture condition: embedded in Myogel + collagen I
# [11] = culture condition: on top of Matrigel
# [12] = culture condition: on top of Myogel
# [13] = culture condition: plastic 2D (no matrix)
structure (smiles),measurement,setting,value
COc1ncc(-c2ccc3nccc(-c4ccnnc4)c3c2)cc1NS(=O)(=O)c1ccc(F)cc1F [Omipalisib],drug sensitivity score,UT-SCC-24A [1]; [9],27 ± 2.8 DSS
same,drug sensitivity score,UT-SCC-24A [1]; [10],22.6 ± 1.6 DSS
same,drug sensitivity score,UT-SCC-24A [1]; [11],25.5 ± 1.2 DSS
same,drug sensitivity score,UT-SCC-24A [1]; [12],20.4 ± 1.8 DSS
same,drug sensitivity score,UT-SCC-24A [1]; [13],25 ± 1.6 DSS
same,maximal % inhibition of viability,UT-SCC-106A [2]; [9],79.7 ± 2.2%
same,maximal % inhibition of viability,UT-SCC-106A [2]; [10],64.2 ± 3.3%
same,maximal % inhibition of viability,UT-SCC-106A [2]; [11],81.2 ± 0.87%
same,maximal % inhibition of viability,UT-SCC-106A [2]; [12],69.7 ± 2.8%
same,maximal % inhibition of viability,UT-SCC-106A [2]; [13],81.53 ± 0.67%
same,maximal % inhibition of viability,UT-SCC-14 [3]; [9],94.8 ± 1.1%
same,maximal % inhibition of viability,UT-SCC-14 [3]; [10],92.2 ± 1.3%
same,maximal % inhibition of viability,UT-SCC-14 [3]; [11],93.9 ± 1.9%
same,maximal % inhibition of viability,UT-SCC-14 [3]; [12],90 ± 2.3%
same,maximal % inhibition of viability,UT-SCC-14 [3]; [13],92.47 ± 0.81%
same,maximal % inhibition of viability,UT-SCC-28 [4]; [9],60.7 ± 5.8%
same,maximal % inhibition of viability,UT-SCC-28 [4]; [10],83 ± 5.5%
same,maximal % inhibition of viability,UT-SCC-28 [4]; [11],64.3 ± 4.8%
same,maximal % inhibition of viability,UT-SCC-28 [4]; [13],60.8 ± 3.6%
same,maximal % inhibition of viability,UT-SCC-24A [5]; [9],95.2 ± 1.4%
same,maximal % inhibition of viability,UT-SCC-24A [5]; [10],89.2 ± 1.7%
same,maximal % inhibition of viability,UT-SCC-24A [5]; [11],92 ± 1.5%
same,maximal % inhibition of viability,UT-SCC-24A [5]; [12],85.8 ± 0.99%
same,maximal % inhibition of viability,UT-SCC-24A [5]; [13],91.6 ± 0.95%
same,drug sensitivity score,UT-SCC-106A [6]; [9],22.8 ± 0.99 DSS
same,drug sensitivity score,UT-SCC-106A [6]; [10],15.4 ± 0.89 DSS
same,drug sensitivity score,UT-SCC-106A [6]; [11],22.33 ± 0.15 DSS
same,drug sensitivity score,UT-SCC-106A [6]; [12],15 ± 1.2 DSS
same,drug sensitivity score,UT-SCC-106A [6]; [13],21.9 ± 0.46 DSS
same,drug sensitivity score,UT-SCC-14 [7]; [9],25.2 ± 1.2 DSS
same,drug sensitivity score,UT-SCC-14 [7]; [10],20.9 ± 3.1 DSS
same,drug sensitivity score,UT-SCC-14 [7]; [11],23.8 ± 0.57 DSS
same,drug sensitivity score,UT-SCC-14 [7]; [12],20.6 ± 0.78 DSS
same,drug sensitivity score,UT-SCC-14 [7]; [13],23.7 ± 2.6 DSS
same,drug sensitivity score,UT-SCC-24B; [9],22.3 ± 0.72 DSS
same,drug sensitivity score,UT-SCC-24B; [10],22.9 ± 1.3 DSS
same,drug sensitivity score,UT-SCC-24B; [11],21.7 ± 0.58 DSS
same,drug sensitivity score,UT-SCC-24B; [12],19.4 ± 0.7 DSS
same,drug sensitivity score,UT-SCC-24B; [13],21.6 ± 0.49 DSS
same,drug sensitivity score,UT-SCC-28 [8]; [9],18.7 ± 3.2 DSS
same,drug sensitivity score,UT-SCC-28 [8]; [10],18.7 ± 1.8 DSS
same,drug sensitivity score,UT-SCC-28 [8]; [11],18.1 ± 1.6 DSS
same,drug sensitivity score,UT-SCC-28 [8]; [13],16.8 ± 0.21 DSS
same,drug sensitivity score,UT-SCC-40; [9],27.3 ± 0.47 DSS
same,drug sensitivity score,UT-SCC-40; [10],21.5 ± 0.32 DSS
same,drug sensitivity score,UT-SCC-40; [11],26.4 ± 0.84 DSS
same,drug sensitivity score,UT-SCC-40; [12],19.2 ± 1.1 DSS
same,drug sensitivity score,UT-SCC-40; [13],20.6 ± 0.46 DSS
same,drug sensitivity score,UT-SCC-42A; [9],20.8 ± 3.1 DSS
same,drug sensitivity score,UT-SCC-42A; [10],18.2 ± 0.85 DSS
same,drug sensitivity score,UT-SCC-42A; [11],21.1 ± 2.2 DSS
same,drug sensitivity score,UT-SCC-42A; [12],18.6 ± 0.96 DSS
same,drug sensitivity score,UT-SCC-42A; [13],21.6 ± 2.3 DSS
same,drug sensitivity score,UT-SCC-42B; [9],24.7 ± 1.2 DSS
same,drug sensitivity score,UT-SCC-42B; [11],18.3 ± 1.2 DSS
same,drug sensitivity score,UT-SCC-42B; [12],14.1 ± 1.2 DSS
same,drug sensitivity score,UT-SCC-42B; [13],15.2 ± 0.4 DSS
same,drug sensitivity score,UT-SCC-44; [9],15.7 ± 2.2 DSS
same,drug sensitivity score,UT-SCC-44; [10],13.9 ± 1.6 DSS
same,drug sensitivity score,UT-SCC-44; [11],14 ± 1.9 DSS
same,drug sensitivity score,UT-SCC-44; [12],14.2 ± 2 DSS
same,drug sensitivity score,UT-SCC-44; [13],12.4 ± 0.21 DSS
same,drug sensitivity score,UT-SCC-73; [9],24.13 ± 0.21 DSS
same,drug sensitivity score,UT-SCC-73; [10],23.1 ± 3.8 DSS
same,drug sensitivity score,UT-SCC-73; [11],23.83 ± 0.15 DSS
same,drug sensitivity score,UT-SCC-73; [12],21.6 ± 0.47 DSS
same,drug sensitivity score,UT-SCC-73; [13],22.2 ± 0.8 DSS
same,drug sensitivity score,UT-SCC-81; [9],28.53 ± 0.15 DSS
same,drug sensitivity score,UT-SCC-81; [10],21.9 ± 1.9 DSS
same,drug sensitivity score,UT-SCC-81; [11],26.8 ± 0.32 DSS
same,drug sensitivity score,UT-SCC-81; [12],21 ± 0.1 DSS
same,drug sensitivity score,UT-SCC-81; [13],22.6 ± 1.5 DSS
same,drug sensitivity score,UT-SCC-8; [9],27.5 ± 1 DSS
same,drug sensitivity score,UT-SCC-8; [10],24.1 ± 4.4 DSS
same,drug sensitivity score,UT-SCC-8; [11],24.5 ± 0.1 DSS
same,drug sensitivity score,UT-SCC-8; [12],23.7 ± 0.44 DSS
same,drug sensitivity score,UT-SCC-8; [13],25 ± 0.83 DSS
